Assay results: patent US6794414B1, “Method and compositions for treating diseases mediated by transglutaminase activity” (Yeda Research and Development Co. Ltd., priority 1998, dated 2004)
“Also recorded” adds a separate entry of the source.

How the values were obtained:
[1] = tested on: mice with experimental autoimmune encephalomyelitis; test: Experimental autoimmune encephalomyelitis (EAE) in mice; type: in vivo; conditions: for Paralysis / paralytic disease in EAE: paraparetic mice with EAE
Method: Paraparetic mice with experimental autoimmune encephalomyelitis were administered one dose of monodansyl cadaverine. […] Thus, diseases mediated in part by transglutaminase can be treated with transglutaminase inhibitors.
0.05 mM monodansyl cadaverine was injected intraperitoneally into one of two groups of mice. The injection was given on day 13 after induction of disease, marked in the FIG. by an arrow.
To obtain the data shown in FIG. 6, experimental autoimmune encephalitis (EAE) was induced in ten week old SJL female mice. EAE was induced by an injection of 4 mg of mouse spinal cord homogenate in 1 ml of CFA. The injections were given intradermally in three places (two places in the flanks and one in the neck). On the same day, day 1, and on day 2, an intraperitoneal injection of pertussis toxin was given. The mice were treated with different concentrations of mono dansyl cadaverine on day 10. One group was injected twice on days 7 and 10 with […] mono dansyl cadaverine.
The grading score for EAE is 0, normal; 1, mild paraparesis; 2, paraparesis; 3, severe paraparesis; 4, quadriparesis; 5, dead.

transglutaminase (TGase) = test: TGase assay on human brain extracts ([3H]putrescine incorporation into casein); type: biochemical; conditions: for TGase Activity + Casein + MDC / TGase Activity − Casein + MDC: 5 mM mono dansyl cadaverine, mean ± SEM, n = 2; for TGase Activity − Casein + MDC: no casein
Method: Each assay contained 80 μg of brain extract, 4 mg/ml N,N-dimethylated casein, 50 mM Tris (pH 8.0), 5 mM CaCl2, 5 mM dithiothreitol (DTT), and 0.37 mM putrescine (1:5, ^3 [H]putrescine:putrescine) in 80 μL. The reaction was incubated at 37° C. for 30 minutes. After it was washed in 500 μL of 10% trichloro acetic acid (TCA) and washed again in 100% ethanol, the reaction was resuspended in 220 μL of 0.1 M NaOH. The resuspended pellet was added to 10 ml of scintillation liquid. […] For lymphoid cells, 10^6 cells were suspended in 0.5 ml buffer for five minutes, then centrifuged at 1200×g for ten minutes.
Approximately 500 mg of brain tissue was homogenized in 2 ml of 10 mM Hepes (pH 7.4) containing 150 mM NaCl, 0.2 mg/ml leupeptin, 0.2 mg/ml aprotinin, 0.2 mg/ml pepstatin, and 0.5 mM phenylmethylsulfonyl fluoride (PMSF). The homogenate was centrifuged at 4° C. for ten minutes at 1000×g, and the supernatant was then centrifuged at 4° C. for ten minutes at 10,000×g to separate the cytoplasmic proteins. The remaining nuclear pellet was washed twice, for ten minutes each time, with the homogenization buffer at 4° C. at 1000×g, and then suspended in 1 ml of 10 mM Tris-Cl, 140 mM NaCl, 3 mM MgCl2, 0.5 mM PMSF, 0.1% sodium dodecyl sulfate (SDS), and 1% Nonylphenyl-polyethylene glycol (Nonidet P-40) (pH 7.4). The homogenate was spun at 4° C. for ten minutes at 8000×g. This procedure increased the level of beta-demn, a protein found more frequently in the cytoplasm than in the nucleus, enriching it 15.5-fold in the cytoplasm relative to the nucleus (Zhao et al, 1998).
This method for measuring brain transglutaminase was adapted from Folk and Cole (Folk et al, 1966). Casein serves as an excellent glutamine-containing protein substrate and […], while putrescine serves as the attacking nucleophile (Cooper et al, 1997). In the Huntington's Disease brain, in both the affected cortex andjin relatively unaffected areas like the cerebellum, which are affected in juvenile Huntington's Disease, transglutaminase activity was greater than in the corresponding areas of the control brain (HD cortex 14888±2864 cpm vs. normal cortex 6697±1410 cpm, mean ±1SEM, p<0.009 for HD cortex versus normal cortex; HD cerebellum 11221±2426 cpm vs. control cerebellum 2606±719 cpm, mean ±1SEM, p<0.001 for HD cerebellum versus control cerebellum.) Transglutaminase activity was also greater in extracts of nuclei from brains of Huntington's Disease patients than controls (HD brain cortical nuclear extract 6368±764 cpm vs. control brain cortical nuclear extract 2357±226 cpm, mean ±1SEM, Table 1).

[2] = molecular target: T1, httQ41 (330 amino acids), P42858
T1 chain: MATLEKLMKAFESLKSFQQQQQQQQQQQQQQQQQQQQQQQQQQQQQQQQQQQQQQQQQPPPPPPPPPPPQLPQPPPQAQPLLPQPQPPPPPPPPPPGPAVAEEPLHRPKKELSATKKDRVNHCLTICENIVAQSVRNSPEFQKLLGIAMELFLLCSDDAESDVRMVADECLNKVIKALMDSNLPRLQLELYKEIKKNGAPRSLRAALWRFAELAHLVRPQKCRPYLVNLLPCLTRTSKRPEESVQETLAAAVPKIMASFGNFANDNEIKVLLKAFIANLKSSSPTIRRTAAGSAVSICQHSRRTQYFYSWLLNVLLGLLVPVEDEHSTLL

[3] = molecular target: T2, httQ41 (100 amino acids; elsewhere given as 110 amino acids), P42858
T2 chain: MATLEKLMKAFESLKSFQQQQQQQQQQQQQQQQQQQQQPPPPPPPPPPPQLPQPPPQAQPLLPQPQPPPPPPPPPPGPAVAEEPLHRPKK

[4] = molecular target: T3, httQ23 (310 amino acids), P42858
T3 chain: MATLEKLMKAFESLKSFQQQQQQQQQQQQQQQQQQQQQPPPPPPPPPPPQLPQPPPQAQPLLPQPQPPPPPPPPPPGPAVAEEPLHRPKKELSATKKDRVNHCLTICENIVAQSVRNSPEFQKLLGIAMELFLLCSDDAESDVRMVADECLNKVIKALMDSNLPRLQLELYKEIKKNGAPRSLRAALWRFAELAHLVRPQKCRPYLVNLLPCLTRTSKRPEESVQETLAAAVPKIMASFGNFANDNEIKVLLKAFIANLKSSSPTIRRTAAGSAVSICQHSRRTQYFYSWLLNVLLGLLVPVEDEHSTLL

[5] = molecular target: T4, httQ23 (90 amino acids), P42858
T4 chain: T2 chain

[6] = molecular target: T5, httQ67 (135 amino acids), P42858
T5 chain: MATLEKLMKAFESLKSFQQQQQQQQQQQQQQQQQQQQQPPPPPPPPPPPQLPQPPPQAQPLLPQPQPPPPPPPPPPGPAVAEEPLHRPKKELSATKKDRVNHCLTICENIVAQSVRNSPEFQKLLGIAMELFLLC

## CN(C)c1cccc2c(S(=O)(=O)NCCCCCN)cccc12 [monodansyl cadaverine]
[1]; 0.05 mM injected intraperitoneally on day 13 after induction, following the second day of injection
  Effect on EAE (FIG. 5), p compared to control: significant influence (p=0.03 compared to control)
[1]; FIG. 5 experiment, versus vehicle-injected controls
  Mononuclear cell infiltration in brains by hematoxilin-eosin staining: high levels of infiltration
[1]; mice treated in vivo
  Side effects: no untoward side effects
[1]; mice with EAE, histology
  Lymphocytic infiltration / accumulation of inflammatory lymphocytes in brain: prevented the accumulation of inflammatory lymphocytes in the brain; also recorded: reversed
[1]
  Paralysis / paralytic disease in EAE: reversed paralytic disease; also recorded: Ongoing paralysis was reversed
[1]; paraparetic mice with EAE treated in vivo
  Disease status after treatment: apparently free of disease; also recorded: free of disease after treatment
[1]; listed as monodensyl cadaverine
  Paralysis / paralytic disease in EAE: can reverse ongoing paralysis
Transglutaminase (TGase); Control Cerebellum extract
  TGase Activity + Casein + MDC: 83 ± 14 CPM
  TGase Activity − Casein + MDC: 117 ± 30 CPM
Transglutaminase (TGase); Control Cortex extract
  TGase Activity + Casein + MDC: 63 ± 10 CPM
  TGase Activity − Casein + MDC: 151 ± 39 CPM
Transglutaminase (TGase); HD Cerebellum extract
  TGase Activity + Casein + MDC: 186 ± 57 CPM
  TGase Activity − Casein + MDC: 58 ± 13 CPM
Transglutaminase (TGase); HD Cortex extract
  TGase Activity + Casein + MDC: 94 ± 18 CPM
  TGase Activity − Casein + MDC: 81 ± 17 CPM
Transglutaminase (TGase); cytosolic extract from HD and control brain, putrescine incorporation into casein
  Inhibition of enzymatic (transglutaminase) activity of brain extract: completely inhibited

B1: guinea pig liver TGase (Sigma) (protein)
chain: AEDLILERCDLQLEVNGRDHRTADLCRERLVLRRGQPFWLTLHFEGRGYEAGVDTLTFNAVTGPDPSEEAGTMARFSLSSAVEGGTWSASAVDQQDSTVSLLLSTPADAPIGLYRLSLEASTGYQGSSFVLGHFILLYNPRCPADAVYMDSDQERQEYVLTQQGFIYQGSAKFINGIPWNFGQFEDGILDICLMLLDTNPKFLKNAGQDCSRRSRPVYVGRVVSAMVNCNDDQGVLQGRWDNNYSDGVSPMSWIGSVDILRRWKDYGCQRVKYGQCWVFAAVACTVLRCLGIPTRVVTNFNSAHDQNSNLLIEYFRNESGEIEGNKSEMIWNFHCWVESWMTRPDLEPGYEGWQALDPTPQEKSEGTYCCGPVPVRAIKEGHLNVKYDAPFVFAEVNADVVNWIRQKDGSLRKSINHLVVGLKISTKSVGRDEREDITHTYKYPEGSEEEREAFVRANHLNKLATKEEAQEETGVAMRIRVGQNMTMGSDFDIFAYITNGTAESHECQLLLCARIVSYNGVLGPVCSTNDLLNLTLDPFSENSIPLHILYEKYGDYLTESNLIKVRGLLIEPAANSYVLAERDIYLENPEIKIRVLGEPKQNRKLIAEVSLKNPLPVPLLGCIFTVEGAGLTKDQKSVEVPDPVEAGEQAKVRVDLLPTEVGLHKLVVNFECDKLKAVKGYRNVIIGPA
[2]
  aggregation into a high molecular weight polymer (35S gel): upon addition of transglutaminase, both httQ23 (310 amino acids) and httQ41 (330 amino acids) aggregate into a high molecular weight polymer within 30 minutes
[3]
  aggregation into a high molecular weight polymer (35S gel): upon addition of transglutaminase, httQ23 (90 amino acids), httQ41 (100 amino acids), and httQ67 (135 amino acids) all aggregate into a high molecular weight polymer within 30 minutes
  amount of aggregation compared to httQ23 (densitometry): 2-3 fold greater amount of aggregation of httQ41 and httQ67 compared to httQ23 at each concentration of transglutaminase
[4]
  aggregation into a high molecular weight polymer (35S gel): upon addition of transglutaminase, both httQ23 (310 amino acids) and httQ41 (330 amino acids) aggregate into a high molecular weight polymer within 30 minutes
[5]
  aggregation into a high molecular weight polymer (35S gel): upon addition of transglutaminase, httQ23 (90 amino acids), httQ41 (100 amino acids), and httQ67 (135 amino acids) all aggregate into a high molecular weight polymer within 30 minutes
[6]
  aggregation into a high molecular weight polymer (35S gel): upon addition of transglutaminase, httQ23 (90 amino acids), httQ41 (100 amino acids), and httQ67 (135 amino acids) all aggregate into a high molecular weight polymer within 30 minutes
  amount of aggregation compared to httQ23 (densitometry): 2-3 fold greater amount of aggregation of httQ41 and httQ67 compared to httQ23 at each concentration of transglutaminase
